Data on three compounds can be found in ChEMBL document CHEMBL1201862, “PubChem BioAssay data set” (2004).

A word on the IC50: it is the concentration that inhibits the measured activity by half.

Activity calls are given as the source filed them. No stated cut-off is given here; in the data, actives have a measured IC50 and inactives only a lower limit.

Chain of Envelope glycoprotein gp160 (Q6QLK5 whole entry, the tested form may be a part): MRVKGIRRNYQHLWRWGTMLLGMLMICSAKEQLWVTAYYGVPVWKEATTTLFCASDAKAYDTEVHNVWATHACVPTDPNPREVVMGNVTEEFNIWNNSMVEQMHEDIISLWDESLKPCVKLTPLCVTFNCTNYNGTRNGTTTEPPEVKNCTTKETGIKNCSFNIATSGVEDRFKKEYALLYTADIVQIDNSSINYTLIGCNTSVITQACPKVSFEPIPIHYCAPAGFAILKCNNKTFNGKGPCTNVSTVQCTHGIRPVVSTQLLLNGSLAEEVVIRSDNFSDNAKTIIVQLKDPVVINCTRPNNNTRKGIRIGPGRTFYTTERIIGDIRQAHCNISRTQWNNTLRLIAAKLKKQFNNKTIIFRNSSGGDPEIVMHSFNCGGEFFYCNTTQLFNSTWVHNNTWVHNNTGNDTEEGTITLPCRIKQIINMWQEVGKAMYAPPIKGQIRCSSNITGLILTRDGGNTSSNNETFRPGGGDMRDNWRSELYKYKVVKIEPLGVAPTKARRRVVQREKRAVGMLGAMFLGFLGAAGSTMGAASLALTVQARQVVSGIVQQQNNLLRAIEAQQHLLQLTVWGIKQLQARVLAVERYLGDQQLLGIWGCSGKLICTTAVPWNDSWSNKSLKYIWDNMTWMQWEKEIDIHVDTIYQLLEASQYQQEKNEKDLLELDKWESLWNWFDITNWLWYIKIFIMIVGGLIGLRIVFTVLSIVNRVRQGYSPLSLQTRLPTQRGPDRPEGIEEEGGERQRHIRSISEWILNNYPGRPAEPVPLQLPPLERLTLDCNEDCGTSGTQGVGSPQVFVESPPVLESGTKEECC

The experiment has as its target Envelope glycoprotein gp160 (Human immunodeficiency virus 1, UniProt Q6QLK5). The experiment is described as follows: inhibitors of HIV fusion peptide binding, primary screen, biochemical, uHTS, fluorescence dequenching (AID 1986).
As for `O=C(NCc1ccccc1)c1ccc2c(=O)[nH]c3c(C(=O)NCC4CCCO4)sc(=S)n3c2c1` (stereo not drawn), the half-maximal inhibitory concentration (IC50) was 24.5 µM (active). Consider `O=C(O)C1Nc2c(O)cccc2C2C=CCC12` (stereo not drawn), for which the half-inhibitory concentration (IC50) is 9.86 µM (active).

`O=C(CN1C(=O)S/C(=C\C=C\c2ccccc2)C1=O)Nc1ccccc1C(=O)O`: the half-inhibitory concentration (IC50) is 21.1 µM (active).
